Experimental data reported in paper PMC10374545, “A small molecule inhibitor of PTP1B and PTPN2 enhances T cell anti-tumor immunity” (Nature Communications, 2023).
Values joined by “and” are separate entries in the source; they are usually repeats but may differ in a detail not shown here. Equal values may be shown once.

What was measured:
[1] = system: STAT-5 Y694 phosphorylation in CD8+ OT-I cells; experiment: Basal and IL-2-induced STAT-5 Y694 phosphorylation in activated OT-I cells; format: cell-based, mouse; details: for p-STAT-5 MFI, single replicates: 1 μM, IL-2 5 ng/ml, Fig. 2F raw data, listed as CMP-182; for p-STAT-5, group mean (Mean 2): IL-2 5 ng, N 6
Protocol: For assessing IL-2-induced STAT-5 Y694 phosphorylation (p-STAT-5) in activated OT-I cells, single cell suspension of OT-I cells from the lymph nodes of OT-I;Ptpn2^fl/fl mice were stimulated with 1 nM […] (N4) for 16 h. […] Reactions were terminated by washing the cells with ice-cold PBS and then stained with fixable viable dye and fluorophore-conjugated antibodies to CD8 on ice for 15 min. Cells were then washed and fixed with 4% (w/w) paraformaldehyde (BD Cytofix™Fixation Buffer) at room temperature for 30 min and permeabilised with 90% (v/v) methanol at −20 °C for 30 min. Permeabilised cells were incubated with a rabbit antibody specific for p-STAT-5 (p-STAT-5; D47E7, Cell Signaling Technology) for 60 min at room temperature, washed thrice with PBS and then stained with goat anti-rabbit IgG (H + L) F(ab’)2 fragment conjugated to Alexa Fluor 647 (Jackson ImmunoResearch Labs; West Grove, PA) to monitor for p-STAT-5 in CD8^+ OT-I cells by flow cytometry.

MC38 colon tumors = experiment: Tumor-infiltrating lymphocytes in MC38 tumors; format: in vivo, mouse; design: CD4 EM, individual mice / CD8 EM, individual mice / GRZMB, individual mice / B cells, individual mice / NK cells, individual mice / Tregs, individual mice / MDSCs, individual mice: unit not given here
Protocol: Tumor-bearing mice were sacrificed and tumors were excised and digested at 37 °C for 30 min using a cocktail of 1 mg/ml collagenase type IV (Worthington Biochemicals) and 0.02 mg/ml DNase I (Sigma-Aldrich) in DMEM supplemented with 2% (v/v) FBS. Cells were passed through a 70 μm cell strainer (BD Biosciences) twice and processed for flow cytometry. For assessing T cell activation, cells were surface stained with fluorophore-conjugated antibodies to CD62L, CD44, PD-1, and TIM-3. For the assessment of NK cells, B cells, myeloid-derived suppressor cells (MDSCs), dendritic cells (DCs), and tumor-associated macrophages, cells were surface stained with fluorophore-conjugated antibodies to NK1.1, TCRβ, CD19, CD11b, CD11c, F4/80, Ly6C and Ly6G. For the detection of intracellular cytokines TNF and IFNγ, T cells were stimulated with PMA (20 ng/ml; Sigma-Aldrich) and ionomycin (1 μg/ml; Sigma-Aldrich) in the presence of GolgiPlug™ and GolgiStop™ (BD Biosciences) for 4 h at 37 °C in complete T cell medium. For the intracellular detection of granzyme B, cells were processed untreated without the addition of BD GolgiPlug™ and BD GolgiStop™.

[2] = system: p-STAT-1 and CD3 in AT3 tumors; experiment: Immunohistochemistry for p-STAT-1 (Y701) and CD3 in AT3 tumors; format: in vivo, mouse; details: 10 mg/kg i.v.
Protocol: For the immunohistochemistry analysis of mammary tumor samples, samples were dissected and fixed in 10% formalin. After fixation, the tissues were embedded in paraffin and sectioned onto microscopic glass slides at 4 μm thickness per section. After deparaffinization and rehydration, the slides were subjected to antigen retrieval in Tris/EDTA buffer (pH 8.0) at 120 °C for 10 min and then cooled down to room temperature. The slides were blocked with 5% (v/v) normal goat serum (NGS) containing 0.1% (v/v) TritonX-100 in PBS for 1 h at room temperature and then incubated with primary antibody p-STAT-1 (Tyr701) (1:500; Cell Signaling Technology), or CD3ε (1:1000; Dako) at room temperature for 1 h. Slides were then washed with PBS containing 0.05% (w/v) Tween-20 and visualized using a rabbit IgG VECTORSTAIN ABC Elite and DAB (3,3′‐diaminobenzidine) Peroxidase Substrate Kit (Vector Laboratories, UK) and counterstained with haematoxylin. Slides were imaged on an Olympus CX43 microscope (Olympus, Tokyo, Japan).

[3] = system: STAT-1 target genes in AT3 tumors; experiment: qPCR of STAT-1 target genes in AT3 tumors; format: in vivo, mouse
Protocol: For quantitative real-time PCR analysis, RNA from tumors was isolated using RNAzol (Sigma-Aldrich, St. Louis, MO), and RNA quality was assessed using a NanoDrop 2000 (Thermo Fisher Scientific, Waltham MA). mRNA was reverse-transcribed using the High-Capacity cDNA Reverse Transcription Kit (Applied Biosystems, Thermo Fisher Scientific, Waltham, MA) and processed for quantitative Real-Time PCR using the Fast SYBR Green Master Mix (Applied Biosystems, Thermo Fisher Scientific, Waltham MA) and PrimePCR™ SYBR Green Assays (Bio-Rad, Hercules, CA) for Cxcl9 (qMmuCID0023784), Cxcl10 (qMmuCED0049500), Tapbp (qMmuCEP0035035), Tap1 (qMmuCEP0057739), […], H2ab1 (qMmuCIP0029038), Cd274 (qMmuCED0044192), H2k1 (qMmuCEP0034842), Tnf (qMmuCED0004141) and Ifng (qMmuCID0006268). Relative gene expression was determined by normalization to the house-keeping gene Rps18 (qMmuCED0045430) or Gapdh (qMmuCED0027497). Gene quantification was performed with the comparative Ct (ΔΔCt) method.

[4] = MC38 tumours, Figure 4B, listed as CMP-182
[5] = MC38 tumours, Figure 4C, listed as CMP-182
[6] = Figure 9A, qPCR in tumour, individual mice, CMP-182 vs Saline

SMILES: CC(C)(O)CCOc1ccc2cc(O)c(N3CC(=O)NS3(=O)=O)c(F)c2c1 [Compound 182, 5-(1-Fluoro-3-hydroxy-7-(3-hydroxy-3-methylbutoxy)naphthalen-2-yl)−1,2,5-thiadiazolidin-3-one 1,1-dioxide]
- p-STAT-5 MFI, single replicates ([1]; time 0): 5942 and 5539 and 8398 and 8753 and 4540 and 4913
- p-STAT-5 MFI, single replicates ([1]; time 5): 14341 and 15725 and 15901 and 18555 and 14928 and 16788
- p-STAT-5 MFI, single replicates ([1]; time 15): 16676 and 18523 and 19580 and 20940 and 16523 and 19213
- p-STAT-5 MFI, single replicates ([1]; time 30): 16027 and 18696 and 19133 and 19342 and 15170 and 18785
- p-STAT-5 MFI, single replicates ([1]; time 60): 13163 and 13881 and 14770 and 14670 and 10937 and 14331
- p-STAT-5 MFI, single replicates ([1]; time 120): 10820 and 12152 and 10493 and 12920 and 10327 and 12862
- basal and IL-2-induced STAT-5 Y694 phosphorylation (p-STAT-5) ([1]; CD8+ T cells): enhanced
- p-STAT-5, column mean ([1]; CD8, IL-2 5 ng, mean over all times, two-way ANOVA, Fig. 2F): 14007
- p-STAT-5, group mean (Mean 2) ([1]; Row 1 (time 0), Fig. 2F): 6348
- p-STAT-5, group mean (Mean 2) ([1]; Row 2 (time 5), Fig. 2F): 16040
- p-STAT-5, group mean (Mean 2) ([1]; Row 3 (time 15), Fig. 2F): 18576
- p-STAT-5, group mean (Mean 2) ([1]; Row 4 (time 30), Fig. 2F): 17859
- p-STAT-5, group mean (Mean 2) ([1]; Row 5 (time 60), Fig. 2F): 13625
- p-STAT-5, group mean (Mean 2) ([1]; Row 6 (time 120), Fig. 2F): 11596
- pSTAT5, single replicates ([1]; N4 1 nM 16 h, then 1 μM 1 h, no IL-2, Fig. 2E raw data, listed as WT+I): 60.1 and 62.9 and 57.6 and 60.3
- pSTAT5%, mean of differences (B - A) ([1]; WT+I vs. WT, 4 pairs, Fig. 2E): 12.98
- TILs in MC38 tumors (MC38 colon tumors; 10 mg/kg i.v.): increased TILs
- CD4 EM, individual mice (MC38 colon tumors; [4]): 7887.52 and 30840.7 and 10292.6 and 20601 and 9909.06
- CD8 EM, individual mice (MC38 colon tumors; [4]): 15044.4 and 39708.3 and 17222.4 and 39521.3 and 13554.1
- GRZMB, individual mice (MC38 colon tumors; [4]): 88.5 and 78.2 and 82.1 and 82.7 and 77.1
- PD-1 TIM-3, individual mice (MC38 colon tumors; [4]): 71 and 72.3 and 61.5 and 79.9 and 67.1
- B cells, individual mice (MC38 colon tumors; [5]): 1614.8 and 2825.59 and 875.433 and 4615.54 and 1539.85
- MDSCs, individual mice (MC38 colon tumors; [5]): 35014.8 and 125819 and 42394.5 and 66581.6 and 40317.8
- NK cells, individual mice (MC38 colon tumors; [5]): 12195.1 and 31635.4 and 14041.5 and 15109.2 and 9658.51
- Tregs, individual mice (MC38 colon tumors; [5]): 1910.56 and 8524.67 and 3417.74 and 9313.01 and 2270.7
- tumor p-STAT-1 and CD3+ T cell infiltrates in AT3 tumors of Lck-Cre;Ptpn2fl/fl mice [2]: enhanced promotion
- expression of STAT-1 target genes, including Cd274, in AT3 tumors ([3]; 10 mg/kg i.v.): increased expression
- cd274 [3, 6]: 1.71 and 1.441 and 1.3642 and 1.436 and 2.196 and 0.7307
- cxcl9 [3, 6]: 2.179 and 2.3662 and 1.906 and 0.2814 and 3.487 and 0.6344
- cxcl10 [3, 6]: 1.765 and 1.612 and 1.49 and 0.6644 and 2.144 and 0.8593
